Patent US12714698B2, “Compositions and methods for treating or preventing dermal disorders” (Drexel University, priority 2015, dated 2026)

Tests used:
Type in all cases: cell-based
[1] = system: human cardiac fibroblasts; assay: Immunoblot of senescence markers (p53, p21, p16, lamin B1, IL-6)
Description: (§1) Cell culture experiments utilizing NRTIs were of the following design. Cultures of either human lung or cardiac fibroblasts were cultivated according to standard culture protocols for these cells (Cristofalo, et al., Journal of Tissue Culture Methods 1980, 6:117-121). Parallel sets of cultures were maintained in normal growth media or in normal growth media with the addition of 1 nM rapamycin. Cultures were maintained with 1 nM rapamycin (Enzo Biologicals) for two weeks before exposure to NRTIs. Cell cultures were exposed to NRTIs at indicated concentrations in individual experiments (generally 10-20 μg/ml) for 7 days, with a change of media and fresh NRTIs at day 4. Mitochondrial measurements, bioanalyzer measurements, immunoblotting for protein expression and phosphorylation status, and assays for senescence were performed at the end of this 7-day period.
Cell culture reagents were from Cellgro, unless indicated. WI-38 fetal-lung primary human fibroblasts or human cardiac fibroblasts were grown in MEM supplemented with 10% fetal bovine serum, 1% L-glutamine, MEM vitamins, and MEM non-essential amino acids. Cells were maintained in a 37° C. in 5% CO2 incubator. For treatment studies, cells were treated with 1 nM rapamycin (Enzo Biologicals) for two weeks before treatment with NRTIs. Cells were maintained by trypsinization and reseeding at a cell density of 1×10^4/cm^2 every 7 to 10 days. Emtricitabine (FTC) and tenofovir disoproxil fumarate (TDF) were kindly provided by the NIH AIDS Research & Reference Reagent program. During the 7-day exposure to the NRTIs, the pharmacologic inhibitors PD98059 (10 μM, Santa Cruz Biotechnologies), BI-D1870, GW5074, and SB203580 (10 μM, Enzo Biologicals) were added to the culture medium either during the final 48 hours or for the final 2 hours depending upon the experiment. During the 7-day exposure to NRTIs, Trolox (500 μM) and N-acetylcysteine (100 μM, Acros Organics) were added every other day. Mito-Q (20 nM) and TPP (20 nM) were kindly provided by Dr. Brett Kaufmann at the University of Pennsylvania School of Veterinary Medicine. Vector and mt-catalase adenoviruses (MOI's 25, 50, and 75) were purchased from Gene Transfer Vector Core from the University of Iowa.
Cell protein extracts were prepared by extracting with radioimmunoprecipitation assay (RIPA) buffer containing a protease inhibitor cocktail (Sigma-Aldrich) and phosphatase inhibitors, NaF and sodium orthovanadate. Protein concentration was quantified using a bicinchoninic acid (BCA) assay (Pierce Biotechnology). […] For co-immunoprecipitation, cell protein extracts were prepared in HNTG buffer containing a protease inhibitor cocktail and quantified using BCA assay. […]

[2] = system: human cardiac fibroblasts; assay: Immunoblot of electron transport chain and mitochondrial clearance proteins
Description: as §1
Cell protein extracts were prepared by extracting with radioimmunoprecipitation assay (RIPA) buffer containing a protease inhibitor cocktail (Sigma-Aldrich) and phosphatase inhibitors, NaF and sodium orthovanadate. Protein concentration was quantified using a bicinchoninic acid (BCA) assay (Pierce Biotechnology). Western blot analysis was performed using 15 to 30 μg of protein extracts that were run on SDS-PAGE and transferred onto nitrocellulose (Biorad) membranes. Blots were incubated with antibodies specific for: beta-actin (Sigma-Aldrich), TFAm, parkin, p16, phospho(S82)HSP27, HSP27 (Santa Cruz Biotechnologies), p53, 21, catalase, MDM2 (EMD Millipore), VDAC, phospho(S235/236)-ribosomal protein S6, ribosomal protein S6, phospho(S166)-MDM2, phospho(5473)-AKT, AKT, beta-tubulin (Cell Signaling), p62 (Enzo Biologicals), IL-6 (NeoBiolab), lamin B1, PINK1, and Mitoprofile Total OXPHOS Cocktail (complex I-NDUFB8 subunit, CII-SDHB subunit, CIIIUQCRC2 subunit, and CIV-mitochondrial COX1 subunit) (Abcam) according to manufacturers' instructions. […] For co-immunoprecipitation, cell protein extracts were prepared in HNTG buffer containing a protease inhibitor cocktail and quantified using BCA assay. […]

[3] = system: human cardiac fibroblasts; assay: Nanostring analysis of mRNA levels; settings: rapamycin
Description: as §1
Differences in mitochondria-related gene expression was examined using a nanostring approach which allows multiplex evaluation of mRNA species in the absence of amplification and provides a direct count of mRNA molecules. The mRNA levels paralleled the changes observed in protein levels as mRNA levels for all subunits increased in cells exposed to NRTIs while rapamycin decreased mRNA levels for all subunits (FIGS. 2D-2H).

[4] = system: human lung fibroblasts; assay: Mitochondrial respiration, Seahorse Bioanalyzer, lung fibroblasts; settings: rapamycin-treated lung fibroblasts
Description: Cell culture reagents were from Cellgro, unless indicated. […]
Mitochondrial function was measured using the XF cell mito stress test kit on a Seahorse XF24 Bioanalyzer (Seahorse Bioscience). […] Following acquisition, results were normalized based upon 10^6 cells counted using a Guava EasyCyte Mini (Millipore), where applicable. […] Mitochondrial respiration was calculated based upon oxygen consumption rate measurements in triplicates from cells seeded in at least quadruplicates. […]

CO[C@H]1C[C@@H]2CC[C@@H](C)[C@@](O)(O2)C(=O)C(=O)N2CCCC[C@H]2C(=O)O[C@H]([C@H](C)C[C@@H]2CC[C@@H](O)[C@H](OC)C2)CC(=O)[C@H](C)/C=C(\C)[C@@H](O)[C@@H](OC)C(=O)[C@H](C)C[C@H](C)/C=C/C=C/C=C/1C [rapamycin]
NRTI-induced decrease of lamin B1 ([1]; rapamycin (1 nM)): prevented this decrease
levels of IL-6 following exposure to NRTIs ([1]; rapamycin treated cells (1 nM)): no increase
levels of p53, p21 and p16 on NRTI exposure ([1]; rapamycin treated cells (1 nM)): did not increase
steady state levels of NDUFB8, SDHB, UQCRC2 and mt-CO1 ([2]; cells treated with rapamycin vs control): lower
ETC protein levels on exposure to NRTIs ([2]; rapamycin-treated cells): not elevated
level of p62/SQSTM1 ([2]; response to rapamycin): decreased
mRNA levels for ETC subunits [3]: decreased
basal and maximal respiration, proton leak following exposure to NRTIs [4]: no increase
